This test has as its target T1, IKZF2 (Homo sapiens, UniProt Q96SW2+Q9UKS7).
T1 construct: expressed in transfected cells
The experiment in a line: HiBiT protein tagging assay, in vitro IKZF2 degradation (HEK293). Particulars: IKZF2-HiBiT reporter Flp-In T-REx HEK293 cells, doxycycline-induced, compound overnight (18-24 hr), normalized to DMSO control; for Dmax: read-out: IKZF2 Dmax (maximum degradation at the highest concentration tested). In kind it is cell-based. As for the experimental part: In vitro degradation of IKZF1 and IKZF2 was measured using HiBiT protein tagging and detection technology (Promega).
HiBiT technology (Promega) was used to develop the quantitative assays to measure the cellular IKZFs level by tagging an 11 amino acid HiBit peptides VSGWRLFKKIS (SEQ ID NO:1) to the protein of interest. Reporter plasmids were generated by fusing a linker sequence (GSSGGSSG; SEQ ID NO:2) followed by the HiBiT tag at the C terminus of IKZF1 and IKZF2. The fusion fragments were subsequently cloned into pcDNA5 pcDNA™5/FRT/TO plasmids (Thermo Fisher, cat #V652020) downstream of the Tetracycline operator. The resulting plasmids were co-transfected with pOG44 Flp-Recombinase Expression Vector (Thermo Fisher, cat #V600520) into Flp-In™ T-REx HEK293 line (Thermo Fisher, cat #R78077) and a stable cell pool was selected by adding 100 μg/ml of Hygromycin (Thermo Fisher, cat #10687010). The reporter cell enabled Tet-On inducible reporter expression from a single copy of the integrated gene.
On Day 1, Cells were grown to ˜80% confluency in TC medium (DMEM Glutamax (Gibco10569), 10% Tet free FBS (Takara 631106), and PenStrep Glutamin (Gibco 10378)) in tissue culture flasks. Doxycycline was then added to a final concentration of 1 μg/ml to induce reporter expression at 37° C. overnight.
On Day 2, 125 nL of serially-diluted solution of testing compounds were dispensed into 384-well white solid assay plates via ECHO acoustic liquid handler. Cells were lifted by 0.25% Trypsin (Gibco 25200) then pelleted by centrifugation (Beckman Avanti J-E) at 500×g for 5 min. Cell pellets were resuspended in TC medium at the concentration of 3e5/mL and 25 μL of cell suspension were added into each well of compound-spotted plates. The plates were returned to a 37° C. incubator overnight (18-24 hr).
On Day 3, assay plates were removed from the TC incubator and 25 μL of Nano-Glo lytic detection system (Promega, cat #N3030) was added to each well. Plates were incubated at r.t. for 3 min with shaking, and luminescence was read using an Envision reader (Perkin Elmer).
All raw data was normalized to DMSO control (final concentration: 0.5%) wells as POC and plotted out for EC50 and Dmax (Maximum degradation at the highest concentration tested in the assay).

T1 sequence (Q9UKS7 1-500 isoform Q9UKS7-2): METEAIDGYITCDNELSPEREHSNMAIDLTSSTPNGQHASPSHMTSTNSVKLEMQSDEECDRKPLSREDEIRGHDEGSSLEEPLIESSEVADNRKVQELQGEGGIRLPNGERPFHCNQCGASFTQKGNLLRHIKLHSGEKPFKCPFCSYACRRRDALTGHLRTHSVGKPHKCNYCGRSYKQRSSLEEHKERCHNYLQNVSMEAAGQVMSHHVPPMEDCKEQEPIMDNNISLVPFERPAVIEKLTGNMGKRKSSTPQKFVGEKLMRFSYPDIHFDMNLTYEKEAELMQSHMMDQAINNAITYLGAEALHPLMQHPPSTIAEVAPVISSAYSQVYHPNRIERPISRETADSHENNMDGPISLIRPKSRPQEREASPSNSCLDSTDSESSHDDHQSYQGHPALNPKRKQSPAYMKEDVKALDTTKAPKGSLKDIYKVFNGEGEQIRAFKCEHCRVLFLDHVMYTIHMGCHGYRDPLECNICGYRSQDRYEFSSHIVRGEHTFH
T1 sequence (Q96SW2 whole entry): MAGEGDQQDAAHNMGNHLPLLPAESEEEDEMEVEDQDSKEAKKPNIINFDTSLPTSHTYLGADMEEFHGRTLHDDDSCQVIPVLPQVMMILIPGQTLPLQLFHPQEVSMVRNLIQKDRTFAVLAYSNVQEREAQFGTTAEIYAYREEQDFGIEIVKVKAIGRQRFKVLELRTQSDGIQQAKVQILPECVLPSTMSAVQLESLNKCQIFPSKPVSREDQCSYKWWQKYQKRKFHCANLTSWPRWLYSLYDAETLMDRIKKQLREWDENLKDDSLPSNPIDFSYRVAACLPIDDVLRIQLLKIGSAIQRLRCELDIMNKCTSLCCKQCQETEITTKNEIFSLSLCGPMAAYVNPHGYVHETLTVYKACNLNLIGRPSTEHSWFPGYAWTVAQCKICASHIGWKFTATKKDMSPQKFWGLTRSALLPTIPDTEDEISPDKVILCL
T1 sequence (Q16531 whole entry partner): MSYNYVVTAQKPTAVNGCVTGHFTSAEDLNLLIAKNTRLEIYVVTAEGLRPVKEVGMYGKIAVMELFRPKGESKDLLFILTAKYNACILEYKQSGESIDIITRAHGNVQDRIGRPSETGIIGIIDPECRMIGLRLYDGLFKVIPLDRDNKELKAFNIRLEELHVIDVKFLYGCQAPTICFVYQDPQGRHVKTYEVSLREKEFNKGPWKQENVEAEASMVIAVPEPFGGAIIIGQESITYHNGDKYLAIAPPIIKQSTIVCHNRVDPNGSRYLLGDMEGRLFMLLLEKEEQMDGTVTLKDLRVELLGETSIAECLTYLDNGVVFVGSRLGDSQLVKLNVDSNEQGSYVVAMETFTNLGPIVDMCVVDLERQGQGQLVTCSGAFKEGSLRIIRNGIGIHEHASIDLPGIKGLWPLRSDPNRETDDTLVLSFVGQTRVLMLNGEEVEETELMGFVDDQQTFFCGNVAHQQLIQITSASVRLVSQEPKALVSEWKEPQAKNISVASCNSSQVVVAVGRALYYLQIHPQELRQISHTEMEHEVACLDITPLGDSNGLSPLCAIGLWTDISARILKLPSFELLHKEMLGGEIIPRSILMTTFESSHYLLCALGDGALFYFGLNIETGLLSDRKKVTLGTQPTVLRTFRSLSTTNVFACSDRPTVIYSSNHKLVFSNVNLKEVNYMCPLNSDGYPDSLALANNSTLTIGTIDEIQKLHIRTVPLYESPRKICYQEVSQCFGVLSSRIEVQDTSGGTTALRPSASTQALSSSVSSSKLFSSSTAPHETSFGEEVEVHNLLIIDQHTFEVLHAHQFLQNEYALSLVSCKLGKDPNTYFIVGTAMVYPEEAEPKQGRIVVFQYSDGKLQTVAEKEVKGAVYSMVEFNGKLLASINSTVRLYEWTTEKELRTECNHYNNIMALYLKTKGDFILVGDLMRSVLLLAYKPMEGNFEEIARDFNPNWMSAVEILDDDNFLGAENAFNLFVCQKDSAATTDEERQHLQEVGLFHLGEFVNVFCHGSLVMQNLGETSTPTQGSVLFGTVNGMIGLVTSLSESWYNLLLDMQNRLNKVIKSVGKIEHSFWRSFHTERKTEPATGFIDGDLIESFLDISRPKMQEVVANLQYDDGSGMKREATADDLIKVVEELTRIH

For `O=C1CCC(N2Cc3cc(O[C@@H]4CN(CC(F)(F)F)CC[C@H]4NCc4ccccc4)ccc3C2=O)C(=O)N1` (relative stereo) [Example 40, 3-(5-((trans-4-(benzylamino)-1-(2,2,2-trifluoroethyl)piperidin-3-yl)oxy)-1-oxoisoindolin-2-yl)piperidine-2,6-dione], the Dmax amounted to 57%. Regarding `O=C1CCC(N2Cc3cc(O[C@H]4CN(Cc5ccccc5)CC[C@@H]4NCc4ccccc4)ccc3C2=O)C(=O)N1` (some centres unmarked) [Example 2a], the Dmax was 97%. In the case of `CC(C)N1CCC(NCc2ccccc2)C(Oc2ccc3c(c2)CN(C2CCC(=O)NC2=O)C3=O)C1` (racemic) [Example 5], the Dmax was 47%.

As for `O=C1CCC(N2Cc3cc(O[C@@H]4CN(Cc5ccccc5)CC[C@H]4NCC(F)(F)F)ccc3C2=O)C(=O)N1` (relative stereo) [Example 45, 3-(5-(((3,4-trans)-1-benzyl-4-((2,2,2-trifluoroethyl)amino)piperidin-3-yl)oxy)-1-oxoisoindolin-2-yl)piperidine-2,6-dione], the “IKZF2 Dmax (maximum degradation at the highest concentration tested)” value is listed as 44%. On to `CC(C)N[C@H]1CCN(Cc2nccs2)C[C@@H]1Oc1ccc2c(c1)CN(C1CCC(=O)NC1=O)C2=O` (some centres unmarked) [Example 62], for which the Dmax turned out to be 103%.

Consider `CCN[C@H]1CCN(Cc2ccc(F)cc2F)C[C@@H]1Oc1ccc2c(c1)CN(C1CCC(=O)NC1=O)C2=O` (mixture of isomers) [Example 38], for which the Dmax is 97%. On to `N#CCN1CCC(NCc2ccccc2)C(Oc2ccc3c(c2)CN(C2CCC(=O)NC2=O)C3=O)C1` (racemic) [Example 41], for which the Dmax amounted to 28%. The same measure, in the same setting: next, `O=C1CCC(N2Cc3cc(O[C@H]4CN(Cc5ccccc5)CC[C@@H]4NCc4ccccc4Cl)ccc3C2=O)C(=O)N1` (mixture of isomers) [Example 10]: 69%; `O=C1CCC(N2Cc3cc(O[C@H]4CN(Cc5ccccc5)CC[C@@H]4NCc4cccc(F)c4)ccc3C2=O)C(=O)N1` (mixture of isomers) [Example 29]: 88%. Still for that read-out and setting: next, `O=C1CCC(N2Cc3cc(O[C@H]4CN(Cc5ccc(C(F)(F)F)cc5)CC[C@@H]4NCc4ccccc4)ccc3C2=O)C(=O)N1` (mixture of isomers) [Example 34]: 80%; `CCNC1CCN(Cc2cccc(-c3ccccc3)c2)CC1Oc1ccc2c(c1)CN(C1CCC(=O)NC1=O)C2=O` (racemic) [Example 60]: 83%. The same measure, in the same setting: next, `O=C1CCC(N2Cc3cc(OC4CN(Cc5ccccc5)CCC4NCCc4ccccc4)ccc3C2=O)C(=O)N1` (racemic) [Example 35]: 98%; `O=C1CCC(N2Cc3cc(OC4CN(Cc5ccccc5)CCC4NCc4cccnc4)ccc3C2=O)C(=O)N1` (racemic) [Example 14]: 91%; `CS(=O)(=O)NC1CCN(Cc2ccccc2)CC1Oc1ccc2c(c1)CN(C1CCC(=O)NC1=O)C2=O` (stereo not drawn) [Example 47, N-((3,4-trans)-1-benzyl-3-((2-(2,6-dioxopiperidin-3-yl)-1-oxoisoindolin-5-yl)oxy)piperidin-4-yl)methanesulfonamide]: 62%. In the case of `O=C1CCC(N2Cc3cc(O[C@H]4CN(Cc5ccccc5F)CC[C@@H]4NCc4ccccc4)ccc3C2=O)C(=O)N1` (mixture of isomers) [Example 17], the Dmax turned out to be 91%. As for `O=C1CCC(N2Cc3cc(OC4CN(Cc5ccccc5)CCC4NC(=O)c4ccccc4)ccc3C2=O)C(=O)N1` (stereo not drawn) [Example 44, N-((3,4-trans)-1-benzyl-3-((2-(2,6-dioxopiperidin-3-yl)-1-oxoisoindolin-5-yl)oxy)piperidin-4-yl)benzamide], the Dmax is 79%. On the same count and under the same terms, next, `CC(C)N[C@H]1CCN(Cc2cnccn2)C[C@@H]1Oc1ccc2c(c1)CN(C1CCC(=O)NC1=O)C2=O` (some centres unmarked) [Example 68]: 74%. Same read-out and setting: next, `CC(C)CN1CCC(NCc2ccccc2)C(Oc2ccc3c(c2)CN(C2CCC(=O)NC2=O)C3=O)C1` (racemic) [Example 6]: 35%; `C[C@H](c1ccccc1)N1CC[C@H](NCc2ccccc2)[C@@H](Oc2ccc3c(c2)CN(C2CCC(=O)NC2=O)C3=O)C1` (mixture of isomers) [Example 51]: 57%; `N[C@@H]1CCN(Cc2ccccc2)C[C@H]1Oc1ccc2c(c1)CN(C1CCC(=O)NC1=O)C2=O` (relative stereo) [Example 42, 3-(5-((trans-4-amino-1-benzylpiperidin-3-yl)oxy)-1-oxoisoindolin-2-yl)piperidine-2,6-dione]: 96%. The same measure, in the same setting: next, `O=C1CCC(N2Cc3cc(OC4CN(Cc5cccnc5)CCC4NCc4ccccc4)ccc3C2=O)C(=O)N1` (racemic) [Example 7]: 92%; `O=C1CCC(N2Cc3cc(OC4CN(Cc5ccccc5)CCC4NC4CC4)ccc3C2=O)C(=O)N1` (racemic) [Example 63]: 94%.

For `O=C1CCC(N2Cc3cc(O[C@H]4CN(CCF)CC[C@@H]4NCc4ccccc4)ccc3C2=O)C(=O)N1` (mixture of isomers) [Example 53], the Dmax worked out at 77%.

In the case of `O=C1CCC(N2Cc3cc(OC4CN(Cc5ccccc5)CCC4Nc4ccccc4)ccc3C2=O)C(=O)N1` (stereo not drawn) [Example 43, 3-(5-(((3,4-trans)-1-benzyl-4-(phenylamino)piperidin-3-yl)oxy)-1-oxoisoindolin-2-yl)piperidine-2,6-dione], the Dmax stood at 48%. The same measure, in the same setting: next, `CCN1CCC(NCc2ccccc2)C(Oc2ccc3c(c2)CN(C2CCC(=O)NC2=O)C3=O)C1` (racemic) [Example 4]: 51%; `O=C1CCC(N2Cc3cc(OC4CN(Cc5ccccn5)CCC4NCc4ccccc4)ccc3C2=O)C(=O)N1` (racemic) [Example 8]: 64%; `CCN[C@H]1CCN(Cc2ccc(F)cc2)C[C@@H]1Oc1ccc2c(c1)CN(C1CCC(=O)NC1=O)C2=O` (some centres unmarked) [Example 64]: 98%. `O=C1CCC(N2Cc3cc(OC4CN(Cc5ccccc5)CCC4NCc4ccccn4)ccc3C2=O)C(=O)N1` (racemic) [Example 13]: the Dmax was 84%. Turning to `CCNC1CCN(Cc2ccc(F)cc2)CC1Oc1ccc2c(c1)CN(C1CCC(=O)NC1=O)C2=O` (racemic) [Example 27], the Dmax was 92%.

Source of the values: US12122764B2, “IKAROS zinc finger family degraders and uses thereof” (Gilead Sciences, Inc., priority 2021, dated 2024).
